Results reported in patent US10301314B2, “Compounds and methods for the prevention and treatment of tumor metastasis and tumorigenesis” (The United States of America, as represented by the …, priority 2011, dated 2019).
pIC50: −log10 of the molar value. Read-outs that look alike come from different tables or passages of the source.

Assays:
[1] = tested on: PC3M reporter cell line stably expressing the PTB-GFP; experiment: ATP quantitation assay (ATPLite); assay type: cell-based, human; settings: Table 4, PC3M cells, 24 hrs incubation; for pIC50: Homo sapiens, PC-3M
Protocol: This follow-up assay was conducted to measure the effect of compounds on cell health by measuring ATP levels (ATPLite™). ATPLite™ is an ATP monitoring system based on firefly (Photinus pyralis) luciferase. The level of ATP in a metabolically active cell is a general marker for its viability. ATP levels are often reduced during necrosis or apoptosis. In this assay, the luciferase enzyme catalyzes the conversion of the added substrate D-luciferin to oxyluciferin and light with ATP. Thus, the emitted light is proportional to the ATP concentration. For this assay, the highly metastatic PC3M reporter cell line stably expressing the PTB-GFP was provided by Professor Sui Huang of Northwestern University. The media and cell culture reagents were purchased from Invitrogen (Carlsbad, Calif.), ATPLite™ came from PerkinElmer.

[2] = tested on: PC3M cell line that stably expresses GFP-PTB to mark PNCs; experiment: High content assay for PNC detection (reduction of PNC prevalence); assay type: cell-based, human; settings: PC3M GFP-PTB cells; for AC50 / pIC50: Homo sapiens, PC-3M; for AC50: Table 3; for pIC50 / PNC IC50(μM): Table 4, 16 hrs incubation
Source text: The quantitative output for this assay is the reduction of PNC prevalence. The PNC can be detected in living cells by the expression of a green fluorescent protein (GFP) tagged to the PNC localized protein, PTB. A PC3M cell line was used that stably expresses GFP-PTB to mark PNCs. This method eliminates the need for immunofluorescent staining.
The IN Cell Analyzer 1000 automated fluorescent imaging system (GE Healthcare, Piscataway, N.J.) was used for automated image acquisition. […] The instrument acquired images of each well in a 1536-well plate with a laser-based autofocus system. To score PNC prevalence in a high-content throughput, the Multi-Target Analysis (MTA) algorithm (GE Healthcare, Investigator v3.5) to identify individual cells and granules (PNCs) within these cells was used. The nucleus was segmented via a region growing method (50 μm^2 minimum area) with light shading and noise removal to allow “touching” nuclei to be separated. Granules in the nucleus (PNCs) were segmented using a multiscale top hat method, which measures granules of 1 to 2 μm in size and used a smart masking method to identify the boundaries of each segmented granule. The algorithm was optimized and validated using positive and negative controls (50 μM camptothecin and DMSO, respectively). In particular, the MTA algorithm allows for the identification of multiple subcellular compartments and organelles (or granules) within those compartments. In this instance, the algorithm's capability to identify objects within the same color channel that only differ in size or fluorescent intensity was utilized. Also, the algorithm allows for building complex hierarchical classification systems, using output measures within the algorithm to filter and define subpopulations. For this particular assay, PNC-positive cells were scored when 1 to 3 PNC granules were detected per nucleus. Cells that contained 0 granules were scored as PNC negative, and cells with >3 granules were assumed to be false positives (very few cells have more than 3 PNCs in one focus plane), and were also scored as PNC negative.

PC3M cells [3] = experiment: Tumor cell migration/invasion assay through 3D fibrillar collagen (Iuvo Single Microchannel Plate); assay type: cell-based; settings: Homo sapiens, PC-3M, 120 h, 5 days
Protocol: High-content tumor cell migration assays in 3-dimensional extracellular matrices are powerful tools for modeling and understanding the biology of this critical step in the process of metastasis. However, most of the available methods are not amenable to the throughput required by studies of comparative pharmacology or small scale screening. For this reason, compounds were tested in BellBrook Labs™ automated high-content tumor cell invasion assays. A standard screening-sized plate with an array of embedded microchannels was designed and constructed from common thermoplastics.
PC3M cells were tested for invasion through 3D fibrillar collagen in the luvo Single Microchannel Plate, in the presence of varying levels of test compounds. Channels were prefilled with 820 nL of 3-dimensional type I collagen at 1 mg/mL, through the input port. Following gelation, 2,000 PC3M cells were seeded into the output port using growth media (RPMI+10% FBS with antibiotics) in a volume of 5 μL. Cells were incubated in a 37° C. incubator inside a humidified container to control evaporation (Bioassay dish, Corning). Media, including test compounds, was changed daily for 5 days. At the end of the assay, cells were fixed and stained with Hoechst 33342, then imaged with 4× objective under epifluorescence. Under these conditions, cells across the 140 μm height range of the microchannel can be reliably identified. Test compounds were serially diluted by a factor of 3 to produce 10 concentrations ranging from 50 or 100 μM to 2.5 nM. All assays were conducted in the presence of 0.1% DMSO. Four replicates were performed for all test concentrations. Each plate had 4 dose response curves, as well as 16 channels with no compound and 16 channels with 50 μM blebbistatin (positive control). Analysis was done by automatically cropping each image at the right edge of the channel and counting cells via the ‘count nuclei’ function on Metamorph (Molecular Devices). Non-linear regression analysis was performed with GraphPad Prism.

PC3M cells [4] = experiment: Soft agar colony formation assay (anchorage independent growth); assay type: cell-based, human; settings: after 14 days; 3.8, 18.6 nM
Protocol: Compound 2 was tested for its ability to affect anchorage independent growth in a soft agar assay, a stringent method to detect malignant transformation of cells in vitro. […] The left hand side of FIG. 1 illustrates a histogram representing the number and size of PC3M soft agar colonies after 14 days of treatment with compound 2 at two different concentrations. A clear reduction of the number of colonies of PC3M cells was observed, particularly at a compound concentration of 18.6 nM. The right hand side of FIG. 1 illustrates two representative images taken at two different regions of the soft agar medium after treatment with DMSO (vehicle) (top row), compound 2 at 3.8 nM (middle row), and compound 2 at 18.6 nM (bottom row).

[5] = PC3M cells in output port, read-out: Proliferation output port IC50
[6] = PC3M cells, 3D type I collagen, read-out: Invasion cell # IC50

| SMILES | pIC50 [1] | pIC50 [2] | also measured |
| --- | --- | --- | --- |
| N=c1c2c(-c3ccccc3)c(-c3ccccc3)n(Cc3ccccc3)c2ncn1[C@H]1CC[C@H](O)CC1 [Compound 2, trans-4-(7-Benzyl-4-imino-5,6-diphenyl-4,7-dihydro-3H-pyrrolo[2,3-d]pyrimidin-3-yl)cyclohexanol] | 4.72 | 7.62 | AC50 [2]: 0.4 µM; pIC50 (PC3M cells [3]; [5]): 5.40; pIC50 (PC3M cells [3]; [6]): 5.50; cell viability in soft agar assay (PC3M cells [4]): no impact on cell viability; number of PC3M soft agar colonies (PC3M cells [4]): dose dependent reduction in the number of colonies |
| N=c1c2c(-c3ccccc3)c(-c3ccccc3)n(Cc3ccccc3)c2ncn1C1CCOCC1 [Compound 1] | 3.82 | 7.52 | AC50 [2]: 0.09 µM; pIC50 (PC3M cells [3]; [5]): 5.30; pIC50 (PC3M cells [3]; [6]): 5.50 |
| COc1ccc(Cn2c(-c3ccccc3)c(-c3ccccc3)c3c(=N)n(C4CCOCC4)cnc32)cc1 [Compound 59] | 4.62 | 6.93 |  |
| CC(C)Cn1cnc2c(c(-c3ccccc3)c(-c3ccccc3)n2Cc2ccco2)c1=N [Compound 141] | 4.69 | 4.80 |  |
| N=c1c2c(-c3ccccc3)c(-c3ccccc3)n(Cc3ccco3)c2ncn1Cc1ccco1 [Compound 43] | 4.69 | 5.00 |  |
| COc1ccc(Cn2c(-c3ccccc3)c(-c3ccccc3)c3c(=N)n(N4CCOCC4)cnc32)cc1 [Compound 98] | 3.92 | 4.83 |  |
| COC(Cn1cnc2c(c(-c3ccccc3)c(-c3ccccc3)n2Cc2ccccc2)c1=N)OC | 4.42 | 5.23 |  |
| N=c1c2c(-c3ccccc3)c(-c3ccccc3)n(Cc3ccccc3)c2ncn1CC1CCOCC1 [Compound 88] | 4.52 | 5.33 |  |
| CCOC(CCCn1cnc2c(c(-c3ccccc3)c(-c3ccccc3)n2Cc2ccc(OC)cc2)c1=N)OCC [Compound 33] | 4.32 | 5.53 |  |
| N=c1c2c(-c3ccccc3)c(-c3ccccc3)n(CC3CCCCC3)c2ncn1[C@H]1CC[C@H](O)CC1 [Compound 78] | 4.52 | 5.83 |  |
| COC(=O)c1ccc(Cn2cnc3c(c(-c4ccccc4)cn3Cc3ccccc3)c2=N)cc1 [Compound 121] | 3.92 |  | PNC IC50(μM) [2]: inactive |
| OCCNc1ncnc2c1c(-c1ccccc1)c(-c1ccccc1)n2Cc1ccco1 [Compound 137] |  |  | ATP IC50(μM) [1]: inactive; PNC IC50(μM) [2]: inactive |
| COc1ccc(-c2c(-c3ccc(OC)cc3)n(Cc3ccccc3)c3ncn(CCCO)c(=N)c23)cc1 [Compound 135] | 4.52 |  | PNC IC50(μM) [2]: inactive |
| CO[C@H]1CC[C@H](n2cnc3c(c(-c4ccccc4)c(-c4ccccc4)n3Cc3ccccc3)c2=N)CC1 [Compound 56] | 4.72 | 8.05 |  |
| N=c1c2c(-c3ccccc3)c(-c3ccccc3)n(Cc3ccc(OC(F)(F)F)cc3)c2ncn1C1CCOCC1 [Compound 75] | 4.62 | 6.03 |  |
| COc1ccc(CCn2cnc3c(c(-c4ccccc4)cn3Cc3ccccc3)c2=N)cc1OC [Compound 130] | 4.62 |  | PNC IC50(μM) [2]: inactive |
| N=c1c2c(-c3ccccc3)cn(Cc3ccc(Br)cc3)c2ncn1CCCN1CCN(c2ccccc2)CC1 [Compound 110] | 4.52 | 4.33 |  |
| N=c1c2c(-c3ccccc3)c(-c3ccccc3)n(Cc3ccccc3)c2ncn1CCC1CCC(O)CC1 (centres unmarked) [Compound 61] | 4.62 | 6.93 |  |
| COc1ccc(-c2c(-c3ccc(OC)cc3)n(Cc3ccccc3)c3ncn(C4CCOCC4)c(=N)c23)cc1 [Compound 104] | 4.52 | 4.63 |  |
| N=c1c2c(-c3ccccc3)c(-c3ccccc3)n(Cc3ccccc3)c2ncn1CCCN1CCN(c2ccccc2)CC1 [Compound 96] | 4.52 | 4.93 |  |
| N=c1c2c(-c3ccccc3)c(-c3ccccc3)n(CCc3ccccc3)c2ncn1CCC1CCC(O)CC1 (centres unmarked) [Compound 67] | 4.62 | 6.53 |  |
| N=c1c2c(-c3ccccc3)c(-c3ccccc3)n(CCc3ccccc3)c2ncn1[C@H]1CC[C@H](O)CC1 [Compound 3] | 5.02 | 7.33 |  |
| N=c1c2c(-c3ccccc3)c(-c3ccccc3)n(Cc3ccccc3)c2ncn1CCNc1ccncc1 [Compound 72] | 4.62 | 6.33 |  |
| N=c1c2c(-c3ccccc3)c(-c3ccccc3)n(Cc3ccc(S(N)(=O)=O)cc3)c2ncn1C1CCOCC1 [Compound 57] | 4.02 | 7.23 |  |
| CN(C)CCCn1cnc2c(c(-c3ccccc3)c(-c3ccccc3)n2Cc2ccccc2)c1=N [Compound 21] | 4.62 | 5.13 |  |
| COc1ccc(-c2c(-c3ccc(OC)cc3)n(Cc3ccccc3)c3ncn([C@H]4CC[C@@H](O)CC4)c(=N)c23)cc1 [Compound 132] |  |  | ATP IC50(μM) [1]: inactive; PNC IC50(μM) [2]: inactive |
| N=c1c2c(-c3ccccc3)c(-c3ccccc3)n(Cc3ccccc3)c2ncn1CCCCO [Compound 12] | 4.62 |  | PNC IC50(μM) [2]: inactive |
